In assay [1] the test system is SMN2 minigene mRNA (SMN2-A minigene) in HEK293H cells. The assay is described as follows: SMN2 minigene mRNA splicing RT-qPCR assay in cultured cells. In kind it is cell-based, human. Particulars: Homo sapiens, HEK293-H; concentration increasing full length SMN2 mRNA 1.5-fold relative to vehicle-treated cells; HEK293H cells with SMN2-A minigene, 24 hours, 7-point concentration data; read-out: EC1.5x for production of full length SMN2 mRNA. The procedure:
The reverse transcription-quantitative PCR-based (RT-qPCR) assay is used to quantify the level of the full length SMN2 minigene mRNA containing SMN2 exon 7 in a HEK293H cell line stably transfected with said minigene and treated with a test compound.
Protocol. HEK293H cells stably transfected with the SMN2-A minigene construct described above (10,000 cells/well) are seeded in 200 μL of cell culture medium (DMEM plus 10% FBS, with 200 μg/mL hygromycin) in 96-well flat-bottom plates and the plate is immediately swirled to ensure proper dispersal of cells, forming an even monolayer of cells. Cells are allowed to attach for at least 4-6 hours. Test compounds are serially diluted 3.16-fold in 100% DMSO to generate a 7-point concentration curve. A solution of test compound (1 μL, 200× in DMSO) is added to each cell-containing well and the plate is incubated for 24 hours in a cell culture incubator (37° C., 5% CO2, 100% relative humidity). 2 replicates are prepared for each test compound concentration. The cells are then lysed in Cells-To-Ct lysis buffer and the lysate is stored at −80° C.
Primer SMN Forward A (SEQ ID NO. 1) hybridizes to a nucleotide sequence in exon 7 (nucleotide 22 to nucleotide 40), primer SMN Reverse A (SEQ ID NO. 2) hybridizes to a nucleotide sequence in the coding sequence of Firefly luciferase, SMN Probe A (SEQ ID NO. 3) hybridizes to a nucleotide sequence in exon 7 (nucleotide 50 to nucleotide 54) and exon 8 (nucleotide 1 to nucleotide 21). The combination of these three oligonucleotides detects only SMN1 or SMN2 minigenes (RT-qPCR) and will not detect endogenous SMN1 or SMN2 genes.
The SMN forward and reverse primers are used at final concentrations of 0.4 μM. The SMN probe is used at a final concentration of 0.15 μM. The GAPDH primers are used at final concentrations of 0.2 μM and the probe at 0.15 μM.
The SMN2-minigene GAPDH mix (15 μL total volume) is prepared by combining 7.5 μL of 2× RT-PCR buffer, 0.4 μL of 25× RT-PCR enzyme mix, 0.75 μL of 20× GAPDH primer-probe mix, 4.0075 μL of water, 2 μL of 10-fold diluted cell lysate, 0.06 μL of 100 μM SMN forward primer, 0.06 μL of 100 μM SMN reverse primer, and […].
PCR is carried out at the following temperatures for the indicated time: Step 1: 48° C. (15 min); Step 2: 95° C. (10 min); Step 3: 95° C. (15 sec); Step 4: 60° C. (1 min); then repeat Steps 3 and 4 for a total of 40 cycles.
Each reaction mixture contains both SMN2-A minigene and GAPDH primers/probe sets (multiplex design), allowing simultaneous measurement of the levels of two transcripts.
Two SMN spliced products are generated from the SMN2 minigene. The first spliced product containing exon 7, corresponding to full length SMN2 mRNA, is referred to herein using the term “SMN2 minigene FL.” The second spliced product lacking exon 7 is referred to herein using the term “SMN2 minigene Δ7.”
The increase of SMN2 minigene FL mRNA relative to that in cells treated with vehicle control is determined from real-time PCR data using a modified ΔΔCt method (as described in Livak and Schmittgen, Methods, 2001, 25:402-8). The amplification efficiency (E) is calculated from the slope of the amplification curve for SMN2 minigene FL and GAPDH individually. The abundances of SMN2 minigene FL and GAPDH are then calculated as (1+E)^−Ct, where Ct is the threshold value for each amplicon. The abundance of SMN2 minigene FL is normalized to GAPDH abundance. The normalized SMN2 minigene FL abundance from test compound-treated samples is then divided by normalized SMN2 minigene FL abundance from vehicle-treated cells to determine the level of SMN2 FL mRNA relative to vehicle control.
For compounds of Formula (I) or a form thereof disclosed herein, Table 4 provides the […] for production of full length SMN2 mRNA that was obtained from the 7-point concentration data generated for each test compound according to the procedure of Biological Example 2. […]
For orientation: Real-time PCR tracks product formation cycle by cycle.

For assay [2], the system named is Smn protein in SMA patient fibroblast cells (GM03813). The assay is described as follows: Smn protein assay in cultured cells (SMN HTRF). In kind it is cell-based, human. The following applies: SMA patient fibroblast cells, 48 hours; for EC1.5x for Smn protein expression: 7-point concentration curve, SMN HTRF, concentration producing 1.5 times Smn protein vs DMSO vehicle control; for maximum fold (Fold) increase of Smn protein: 7-point concentration data, fold relative to vehicle control. The procedure:
The SMN HTRF (homogeneous time resolved fluorescence) assay is used to quantify the level of Smn protein in SMA patient fibroblast cells treated with test compounds.
Protocol. Cells are thawed and cultured in DMEM-10% FBS for 72 hours. Cells are trypsinized, counted and re-suspended to a concentration of 25,000 cells/mL in DMEM-10% FBS. The cell suspension is plated at 5,000 cells per well in a 96 well microtiter plate and incubated for 3 to 5 hours. […] Test compounds are serially diluted 3.16-fold in 100% DMSO to generate a 7-point concentration curve. 1 μL of test compound solution is transferred to cell-containing wells and cells are incubated for 48 hours in a cell culture incubator (37° C., 5% CO2, 100% relative humidity). Triplicate samples are set up for each test compound concentration. After 48 hours, the supernatant is removed from the wells and 25 μL of the RIPA lysis buffer, containing protease inhibitors, is added to the wells and incubated with shaking at room temperature for 1 hour. 25 μL of the diluent is added and then 35 μL of the resulting lysate is transferred to a 384-well plate, where each well contains 5 μL of the antibody solution (1:100 dilution of anti-SMN d2 and anti-SMN kryptate in SMN reconstitution buffer). The plate is centrifuged for 1 minute to bring the solution to the bottom of the wells, then incubated overnight at room temperature. Fluorescence for each well of the plate at 665 nm and 620 nm is measured on an EnVision multilabel plate reader (Perkin-Elmer).
The normalized fluorescence signal is calculated for each sample, Blank and vehicle control well by dividing the signal at 665 nm by the signal at 620 nm. Normalizing the signal accounts for possible fluorescence quenching due to the matrix effect of the lysate. The ΔF value (a measurement of Smn protein abundance as a percent value) for each sample well is calculated by subtracting the normalized average fluorescence for the Blank control wells from the normalized fluorescence for each sample well, then dividing this difference by the normalized average fluorescence for the Blank control wells and multiplying the resulting value by 100. The ΔF value for each sample well represents the Smn protein abundance from test compound-treated samples. The ΔF value for each sample well is divided by the ΔF value for the vehicle control wells to calculate the fold increase in Smn protein abundance relative to the vehicle control.
For compounds of Formula (I) or a form thereof disclosed herein, Table 9 provides the EC1.5× for Smn protein expression that was obtained from the 7-point concentration data generated for each test compound according to the procedure of Biological Example 7. The term “EC1.5× for Smn protein expression” is defined as that concentration of test compound that is effective in producing 1.5 times the amount of Smn protein in an SMA patient fibroblast cell compared to the amount produced from the DMSO vehicle control. An EC1.5× for Smn protein expression between >3 μM and ≤10 μM is indicated by one star (*), an EC1.5× between >1 μM and ≤3 μM is indicated by two stars (**), an EC1.5× between >0.3 μM and ≤1 μM is indicated by three stars (***) and an EC1.5x≤0.3 μM is indicated by four stars (****).
For compounds of Formula (I) or a form thereof disclosed herein, Table 10 provides the maximum fold (Fold) increase of Smn protein that was obtained from the 7-point concentration data generated for each test compound according to the procedure of Biological Example 7. A maximum fold increase of ≤1.2 is indicated by one star (*), a fold increase between >1.2 and ≤1.35 is indicated by two stars (**), a fold increase between >1.35 and ≤1.5 is indicated by three stars (***), a fold increase between >1.5 and ≤1.65 is indicated by four stars (****) and a fold increase >1.65 is indicated by five stars (*****).
For orientation: Time-resolved FRET reads energy transfer from a long-lived donor to a nearby acceptor.

Take `Cc1cn2nc(-c3cc(=O)n4cc(C5=CCN(C6CC6)CC5)ccc4n3)cc2c(C)n1` [Compound 354, 7-(1-cyclopropyl-1,2,3,6-tetrahydropyridin-4-yl)-2-(4,6-dimethylpyrazolo[1,5-a]pyrazin-2-yl)-4H-pyrido[1,2-a]pyrimidin-4-one]: the EC (1.5-fold increase) in assay [1] is less than 0.1 µM. Also, in assay [2], the “EC1.5x for Smn protein expression” value was “*** (an EC1.5× between >0.3 μM and ≤1 μM is indicated by three stars (***))”; the “maximum fold (Fold) increase of Smn protein” value (shortened to “maximum fold (Fold) increase”) is “**** (a fold increase between >1.5 and ≤1.65 is indicated by four stars (****))”.

For `CNC1CCN(c2cc(C)c3nc(-c4ccc(OC)c(OC)c4)cc(=O)n3c2)CC1` [Compound 358, 2-(3,4-dimethoxyphenyl)-9-methyl-7-[4-(methylamino)piperidin-1-yl]-4H-pyrido[1,2-a]pyrimidin-4-one], the EC (1.5-fold increase) in assay [1] is less than 0.1 µM. In addition, in assay [2], the “EC1.5x for Smn protein expression” value was “** (an EC1.5× between >1 μM and ≤3 μM is indicated by two stars (**))”; the “maximum fold (Fold) increase” value was “*** (a fold increase between >1.35 and ≤1.5 is indicated by three stars (***))”.

Regarding `CCc1cc(-c2cc(=O)n3cc(N4CCCN(C)CC4)ccc3n2)cn2cc(C)nc12` [Compound 676, 2-(8-ethyl-2-methylimidazo[1,2-a]pyridin-6-yl)-7-(4-methyl-1,4-diazepan-1-yl)-4H-pyrido[1,2-a]pyrimidin-4-one], in assay [1], the EC (1.5-fold increase) is less than 0.1 µM. Moreover, in assay [2], the “EC1.5x for Smn protein expression” value was “*** (an EC1.5× between >0.3 μM and ≤1 μM is indicated by three stars (***))”; the “maximum fold (Fold) increase” value is recorded as “***** (a fold increase >1.65 is indicated by five stars (*****))”.

For `CCN1CCN(c2ccc3nc(-c4cc5c(C)nc(C)cn5n4)cc(=O)n3c2)C[C@H]1C` [Compound 343, 2-(4,6-dimethylpyrazolo[1,5-a]pyrazin-2-yl)-7-[(3R)-4-ethyl-3-methylpiperazin-1-yl]-4H-pyrido[1,2-a]pyrimidin-4-one], the EC (1.5-fold increase) in assay [1] was less than 0.1 µM. For the same compound, in assay [2], the “EC1.5x for Smn protein expression” value is reported as “**** (an EC1.5x≤0.3 μM is indicated by four stars (****))” and the “maximum fold (Fold) increase” value is recorded as “***** (a fold increase >1.65 is indicated by five stars (*****))”.

In the case of `Cc1cn2nc(-c3cc(=O)n4cc(C5=CCN(C6COC6)CC5)ccc4n3)cc2c(C)n1` [Compound 357, 2-(4,6-dimethylpyrazolo[1,5-a]pyrazin-2-yl)-7-[1-(oxetan-3-yl)-1,2,3,6-tetrahydropyridin-4-yl]-4H-pyrido[1,2-a]pyrimidin-4-one], the EC (1.5-fold increase) in assay [1] fell in the range of 0.1 to 0.3 µM. Further, in assay [2], the “EC1.5x for Smn protein expression” value was “*** (an EC1.5× between >0.3 μM and ≤1 μM is indicated by three stars (***))”; the “maximum fold (Fold) increase” value is “**** (a fold increase between >1.5 and ≤1.65 is indicated by four stars (****))”.

Turning to `Cc1cn2cc(-c3cc(=O)n4cc(N5CCCNCC5)ccc4n3)ccc2n1` [Compound 116, 7-(1,4-diazepan-1-yl)-2-(2-methylimidazo[1,2-a]pyridin-6-yl)-4H-pyrido[1,2-a]pyrimidin-4-one], the EC (1.5-fold increase) in assay [1] fell in the range of 0.1 to 0.3 µM. In assay [2], the “EC1.5x for Smn protein expression” value is “* (An EC1.5× for Smn protein expression between >3 μM and ≤10 μM is indicated by one star (*))”; the “maximum fold (Fold) increase” value was “*** (a fold increase between >1.35 and ≤1.5 is indicated by three stars (***))”.

For the compound `Cc1cn2cc(-c3cc(=O)n4cc(C5CCN(CCO)CC5)ccc4n3)cc(C)c2n1` [Compound 617, 2-(2,8-dimethylimidazo[1,2-a]pyridin-6-yl)-7-[1-(2-hydroxyethyl)piperidin-4-yl]-4H-pyrido[1,2-a]pyrimidin-4-one], the EC (1.5-fold increase) in assay [1] is less than 0.1 µM. Moreover, in assay [2], the “EC1.5x for Smn protein expression” value was “**** (an EC1.5x≤0.3 μM is indicated by four stars (****))” and the “maximum fold (Fold) increase” value is reported as “***** (a fold increase >1.65 is indicated by five stars (*****))”.

With `CCc1nc(C)cn2nc(-c3cc(=O)n4cc(N5CCN6CCC[C@H]6C5)cc(C)c4n3)cc12` [Compound 818, 2-(4-ethyl-6-methylpyrazolo[1,5-a]pyrazin-2-yl)-7-[(8aS)-hexahydropyrrolo[1,2-a]pyrazin-2(1H)-yl]-9-methyl-4H-pyrido[1,2-a]pyrimidin-4-one], the EC (1.5-fold increase) in assay [1] was 0.1 to 0.3 µM. Also, in assay [2], the “EC1.5x for Smn protein expression” value was “*** (an EC1.5× between >0.3 μM and ≤1 μM is indicated by three stars (***))”; the “maximum fold (Fold) increase” value is “***** (a fold increase >1.65 is indicated by five stars (*****))”.

Values taken from patent US11753407B2, “Compounds for treating spinal muscular atrophy” (PTC Therapeutics, Inc., priority 2012, dated 2023).
